Blank lines part the entries; values can stand above or below the compound they belong to.
Columns and labels:
[1] = Visual observation of appearance (solubility, miscibility) in solvents, solvent blends and gel bases; format: physicochemical
Procedure: Conductivity in mixtures of a solvent in combination with choline and geranic acid were done separately.
(§1) Propylene glycol: Samples were made by first starting with 5 grams of each raw material; geranic acid first then repeated with choline (bicarbonate). In summary 1-3 grams of propylene glycol was added to the raw material being tested and mixed. A visual observation was made along with a conductivity measurement.
as §1, with “Ethanol:” for “Propylene glycol:”
as §1, with “Diisopropyl adipate:” for “Propylene glycol:”, “summary,” for “summary”
(§2) The solvents investigated included: water, propylene glycol, glycerin, PEG400, ethanol, diisopropyl adipate, mineral oil, propylene glycol/ethanol/water, and glycerin/PEGG400/water. […] Observations were taken at each concentration. Conductivity measurements were taken at each titrated point for information only at this stage. Scales on subsequent graphs are appropriate for each solvent's values.
No conductivity measurements were taken.
(§3) A visual observation was made along with a conductivity measurement. The process was continued until ˜25 grams of product was reached. The resulting product was stored for later evaluation.
as §3, §3, §3, §3, §3
1-3 grams of water was added and mixed. A visual observation was made along with a conductivity measurement. The process was continued until ˜16 grams of product was reached. The resulting product was stored for later evaluation.
1-3 grams of water was added and mixed. A visual observation was made along with a conductivity measurement. The process was continued until ˜20 grams of product was reached. The resulting product was stored for later evaluation. […]
A similar experiment with the propylene glycol formulation was performed. The results are shown in Table 23, Table 24, and FIG. 28.
(§4) The conductivity is shown in FIG. 32 and the appearance is described in Table 28.

[2] = Conductivity measurement in solvents, solvent blends and gel bases; format: physicochemical
Procedure: Conductivity in mixtures of a solvent in combination with choline and geranic acid were done separately. […]
as §1, with “Ethanol:” for “Propylene glycol:”, “measurement. […]” for “measurement.”
as §2, §3, §3, §3, §3, §3
A visual observation was made along with a conductivity measurement. The process was continued until ˜25 grams of product was reached. The resulting product was stored for later evaluation. […]
as §4

[3] = 19% geranic acid, 81% ethanol 200 proof
[4] = 20% geranic acid, 80% ethanol 200 proof
[5] = 22% geranic acid, 78% ethanol 200 proof
[6] = 24% geranic acid, 76% ethanol 200 proof
[7] = 26% geranic acid, 74% ethanol 200 proof
[8] = 29% geranic acid, 71% ethanol 200 proof
[9] = 33% geranic acid, 67% ethanol 200 proof
[10] = 36% geranic acid, 64% propylene glycol
[11] = 38% geranic acid, 62% ethanol 200 proof
[12] = 45% geranic acid, 55% ethanol 200 proof
[13] = 56% geranic acid, 44% ethanol 200 proof
[14] = 56% geranic acid, 44% propylene glycol
[15] = 71% geranic acid, 29% ethanol 200 proof
[16] = 71% geranic acid, 29% propylene glycol
[17] = 71.43% geranic acid, 28.57% diisopropyl adipate
[18] = 83% geranic acid, 17% ethanol 200 proof
[19] = 83% geranic acid, 17% propylene glycol
[20] = 83.33% geranic acid, 16.67% diisopropyl adipate
[21] = 100.00% geranic acid, 0.00% diisopropyl adipate
[22] = 100% geranic acid, 0% ethanol 200 proof
[23] = 100% geranic acid, 0% propylene glycol

- miscibility with diisopropyl adipate [1]: not miscible
SMILES: C[N+](C)(C)CCO [Choline Bicarbonate, choline bicarbonate]

- Conductivity [2, 3]: 0.00064 mS/cm
- Conductivity [2, 4]: 0.00064 mS/cm
- Conductivity [2, 5]: 0.00066 mS/cm
- Conductivity [2, 6]: 0.00068 mS/cm
- Conductivity [2, 7]: 0.00072 mS/cm
- Conductivity [2, 8]: 0.00074 mS/cm
- Conductivity [2, 9]: 0.00083 mS/cm
- Conductivity [2, 10]: 0.00009 mS/cm
- Conductivity [2, 11]: 0.00061 mS/cm
- Conductivity [2, 12]: 0.00048 mS/cm
- Conductivity [2, 13]: 0.00022 mS/cm
- Conductivity [2, 14]: 0.00008 mS/cm
- Conductivity [2, 15]: 0.00003 mS/cm
- Conductivity [2, 16]: 0.00008 mS/cm
- Conductivity [2, 17]: 0 mS/cm
- Conductivity [2, 18]: 0.00001 mS/cm
- Conductivity [2, 19]: 0.00000 mS/cm
- Conductivity [2, 20]: 0 mS/cm
- Conductivity [2, 21]: 0 mS/cm
- Conductivity [2, 22]: 0.00000 mS/cm
- Conductivity [2, 23]: 0.00000 mS/cm
- contribution to the overall conductivity ([2]; mixtures with solvent): effectively zero
- Appearance [1, 3]: Clear solution
- Appearance [1, 4]: Clear solution
- Appearance [1, 5]: Clear solution
- Appearance [1, 6]: Clear solution
- Appearance [1, 7]: Clear solution
- Appearance [1, 8]: Clear solution
- Appearance [1, 9]: Clear solution
- Appearance [1, 10]: Clear solution
- Appearance [1, 11]: Clear solution
- Appearance [1, 12]: Clear solution
- Appearance [1, 13]: Clear solution
- Appearance [1, 14]: Clear solution
- Appearance [1, 15]: Clear solution
- Appearance [1, 16]: Clear solution
- Appearance [1, 17]: Clear solution
- Appearance [1, 18]: Clear solution
- Appearance [1, 19]: Clear solution
- Appearance [1, 20]: Clear solution
- Appearance [1, 21]: Clear solution
- Appearance [1, 22]: Clear solution
- Appearance [1, 23]: Clear solution
SMILES: CC(C)=CCC/C(C)=C/C(=O)O [Geranic Acid, 3,7-dimethyl-2,6-octadienoic acid]

— US20210113696A1, “IONIC LIQUID COMPOSITIONS FOR TREATMENT OF ROSACEA” (CAGE BIO INC., priority 2018, published 2021)
